According to US6693126B2, “Dihydroxyphenyl derivatives for hepatoprotection and treatment of liver diseases” (Choongwae Pharm. Co., Ltd., priority 2000, dated 2004):

Experiments:
[1] = test system: Fulminant Liver Injuries caused by D-galactosamine/lipopolysaccharide in Mice; assay: Inhibitory effect against fulminant liver injuries caused by D-galactosamine/lipopolysaccharide in mice (survival); type: in vivo, Mice (ICR, male); details: D-galactosamine 800 mg/kg + lipopolysaccharide 10 μg/kg i.p., observed 24 hours
Text: Further, the D-galactosamine/lipopolysaccharide model(see, Chris Galanos et al., Proc. Natl. Acad. Sci. USA, 76, 11, 5939-5943, 1979; Koji Hase et al., Biol. Pharm. Bull., 20, 4, 381-385, 1997; Junichi Nagakawa et al., The Journal of Pharmacology and Experimental Therapeutics, 264, 1, 1992; Nolan J. D., Hepatology, 1, 458-465, 1981; Wendel A., Methods Enzymol., 186, 675-680, 1990) which is also used in the present invention for the identification of hepatoprotective effect is based on the phenomena that liver injuries are caused by immune responses in mouse. It has been reported that such kind of liver injuries are caused not by direct tissue lesions due to the chemicals but by secretion of tumor necrosis factor(TNF)-α, reactive oxygen, etc.(see, Hishinuma I. et al., Hepatology, 12, 1187-1191, 1990, Hase K. et al., Phytother. Res., 10, 387-392, 1996). Here, D-galactosamine supresses protein biosynthesis and as well highly increases the sensitivity of the liver cells for lipopolysaccharide by reducing uridine nucleotide.
The hepatoprotective effect of the compound of the present invention was identified according to a known procedure(see, Koji Hase et al., Biol. Pharm. Bull., 20, 4, 381-385, 1997), and the protocol may be described in brief as follows.
Mice(ICR, male, 27˜35 g) as the test animal were allowed in a condition of temperature 22±1° C. and relative humidity 60±5%. Feed and water were provided with no restriction while light and darkness were changed at an interval of 12 hours.
The compound of the present invention was suspended in a solvent corn oil, and this suspension was administered in a dose of 10 ml/kg. Each group included 10 test animals, and the test compound was orally administered once per animal. After 1 hour from the administration of the test compound, D-galactosamine and lipopolysaccharide each of which dissolved in physiological saline were intraperitoneally injected at the same time in doses of 800 mg/kg and 10 μg/kg, respectively. As the control compounds, SY-640[N-methyl-N-(3,4-methylenedioxyphenacyl)acetamide; EP0350251], silymarin and DDB were selected.
The statistical significance for the test result of each group was examined based on Student's t-test, and the result was recognized as having a statistical significance when its P value is less than 5%.

[2] = test system: Liver Injuries caused by Carbon Tetrachloride in Mice; assay: Inhibitory effect against liver injuries caused by carbon tetrachloride in mice; type: in vivo, mice (ICR, male); details: CCl4 i.p., serum 24 h
Text: (§1) The carbon tetrachloride model(see, Philippe letteron et al., Biochemical Pharmacology, 39, 12, 2027-2034, 1990; Tips, 10, 1989; Kyoichi Kagawa et al., Japan J. Pharmacol., 42, 19-26, 1986; K. T. Liu and P. Lesca, Chem. Biol. Interactions, 41, 39-47, 1982; Richard O. et al., J. Biological Chemistry, 236, 2, 1961) is used most generally. This model has been established based on the internal phenomena that carbon tetrachloride is converted by cytochrome P-450 to a toxic free radical trichloromethyl(CCl3.), this radical is strongly bound to a thiol group of membrane protein on microsome of liver to form a lipid radical, which is then converted to a peroxy radical in the presence of oxygen to facilitate the peroxidation reaction of membrane lipid. That is, carbon tetrachloride suppresses protein biosynthesis in the liver, induces the increase of ALT and AST values in blood, and further causes histologically the centrilobular necrosis of the liver.
(§2) The degree of liver damage in the experimental animals was determined by measuring ALT and AST values in blood(see, Biol. Pharm. Bull., 20, 4, 381-385, 1997; Toxicology and Applied Pharmacology, 95, 1-11, 1988), and the hepatoprotective activity was calculated based on the following formula(see, Planta Medica, 55, 127-132, 1989). At this time, the hepatoprotective activity can also be calculated based on the same formula by replacing ALT value with AST value. [formula]
(§3) The hepatoprotective effect of the compound of the present invention was identified according to a known procedure(see, Philippe letteron et al., Biochemical Pharmacology, 39, 12, 2027-2034, 1990), and the protocol may be described in brief as follows.
(§4) Rats(SD, male, 180˜200 g) and mice(ICR, male, 27-35 g) used in the test were allowed in a condition of temperature 22±1° C. and relative humidity 60±5%. Feed and water were provided with no restriction while light and darkness were changed at an interval of 12 hours.
(§5) […] […] Each group included 8 test animals, and the test compound was orally administered once per animal. After 30 minutes(rat) or 1 hour(mouse) from the administration of the test compound, 10% carbon tetrachloride in corn oil solution was intraperitoneally injected in doses of 2 ml/kg in rats and 0.15 ml/kg in mice. As the control compounds, silymarin and DDB were selected.
(§6) The test animals were provided with no feed and sufficient water for 24 hours from the administration of carbon tetrachloride. […] This blood was centrifuged to obtain sera. ALT and AST values in the sera were measured using blood chemistry analyzer(Vitalab, Selectra II, Merck). The statistical significance for the test result of each group was examined based on Student's t-test, and the result was recognized as having a statistical significance when its P value is less than 5%.

[3] = test system: Liver Injuries caused by Carbon Tetrachloride in Rats; assay: Inhibitory effect against liver injuries caused by carbon tetrachloride in rats; type: in vivo, Rats (SD, male); details: CCl4 i.p., serum 24 h
Text: as §1, §2, §3, §4, §5, §6

Compound	Survival Rate (%) ([1]; dose 50 mg/kg oral once)	Inhibitory Effect against Liver Injuries (%) ALT ([2]; dose 1.9 mg/kg p.o. once) [%]	Inhibitory Effect against Liver Injuries (%) ALT ([2]; dose 5.6 mg/kg p.o. once) [%]	Inhibitory Effect against Liver Injuries (%) ALT ([2]; dose 16.7 mg/kg p.o. once) [%]	Inhibitory Effect against Liver Injuries (%) ALT ([2]; dose 50 mg/kg p.o. once) [%]	Inhibitory Effect against Liver Injuries (%) ALT ([3]; dose 1.9 mg/kg p.o. once) [%]	Inhibitory Effect against Liver Injuries (%) ALT ([3]; dose 5.6 mg/kg p.o. once) [%]	Inhibitory Effect against Liver Injuries (%) ALT ([3]; dose 16.7 mg/kg p.o. once) [%]	Inhibitory Effect against Liver Injuries (%) ALT ([3]; dose 50 mg/kg p.o. once) [%]	Survival Rate (%) ([1]; dose 5.6 mg/kg oral once)	Inhibitory Effect against Liver Injuries(%) AST ([2]; dose 16.7 mg/kg p.o. once) [%]	Inhibitory Effect against Liver Injuries(%) AST ([2]; dose 50 mg/kg p.o. once) [%]
COc1cc(/C=N/OCc2ccccn2)cc2c1OCO2 [Compound 13, 6-(2-((2-pyridyl)methoxy)-2-azavinyl)-4-methoxybenzo [d]1,3-dioxolane]	90	35	43	69	100	53	49	59	67	–	–	–
O/N=C/c1ccc2c(c1)OCO2 [Compound 1]	90	50	79	100	100	44	43	68	84	–	–	–
c1csc(-c2ccc3c(c2)OCO3)n1 [Compound 21, 2-(benzo[3,4-d]1,3-dioxolan-5-yl)-1,3-thiazole]	–	–	–	99	100	–	–	63	67	100	97	100
CC(=O)SCC(=O)c1ccc2c(c1)OCO2 [Compound 28, 1-(benzo[3,4-d]1,3-dioxolan-5-yl)-2-acetylthioethan-1-one]	–	–	–	93	100	–	–	14	41	100	94	100
COC(=O)c1cc(OC)c2c(c1-c1c(C(=O)OC)cc(OC)c3c1OCO3)OCO2 [DDB, reference compound]	80	–	–	–	22	–	–	–	21	–	–	6
